Experimental findings from article PMC5482477, “Overexpression and characterization of two types of nitrile hydratases from Rhodococcus rhodochrous J1” (PLoS ONE, 2017) are described below.

This experiment has as its target T1, H-NHase (NhhBA) (Rhodococcus rhodochrous, UniProt P21219+P21220).
T1 construct: gene nhhA; alpha10beta10, 504 kDa by gel filtration; cobalt-containing
T1 sequence (P21219 2-203): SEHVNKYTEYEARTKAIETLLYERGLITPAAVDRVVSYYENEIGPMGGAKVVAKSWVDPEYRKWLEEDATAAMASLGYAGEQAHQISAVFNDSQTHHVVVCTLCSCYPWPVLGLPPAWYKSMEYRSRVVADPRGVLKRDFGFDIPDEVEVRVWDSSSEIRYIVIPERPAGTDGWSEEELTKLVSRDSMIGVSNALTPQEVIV
T1 sequence (P21220 1-229): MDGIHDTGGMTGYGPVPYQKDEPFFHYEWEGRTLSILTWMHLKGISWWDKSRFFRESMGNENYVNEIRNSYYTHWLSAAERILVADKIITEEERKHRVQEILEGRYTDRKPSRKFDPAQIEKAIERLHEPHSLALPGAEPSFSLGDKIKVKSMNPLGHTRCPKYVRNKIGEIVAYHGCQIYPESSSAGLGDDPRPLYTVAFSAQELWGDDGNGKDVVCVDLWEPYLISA
Briefly: residual activity after […] min treatment, HPLC. Format: biochemical.

Structures are written as SMILES.

`NC(=O)c1cccnc1` [nicotinamide]: the remaining activity at 1.5 M came out at 60%.
